Structures can show the parent of a compound that is named as a salt.
Key:
Type in all cases: cell-based, human
AGS = assay: CellTiter-Glo Reagent cancer cell line proliferation assay, AGS; settings: KRAS(G12D) heterozygous
Description: (§1) The following cancer cell lines were employed: • AsPC-1 human pancreatic adenocarcinoma, homozygous KRAS(G12D), (ATCC, #CRL-1682); A-427 human lung carcinoma, heterozygous KRAS(G12D), (ATCC, #HTB-53); AGS human gastric adenocarcinoma, heterozygous KRAS(G12D), (ATCC, #CRL-1739); GP2D human colon adenocarcinoma, heterozygous KRAS(G12D), (Sigma Aldrich, 95090714); SW1990 human pancreatic adenocarcinoma, homozygous KRAS(G12D), (ATCC, #CRL2172); LU65A human lung giant cell carcinoma, heterozygous KRAS(G12C), (JCRB Cell Bank, #JCRB0054); NCIH727 human lung carcinoid, heterozygous KRAS(G12V), (ATCC, #CRL-5815); MKN1 human gastric adenosquamous carcinoma KRAS (wt), (JCRB Cell Bank, #JCRB0252). Cell lines were cultured according to ATCC, JCRB and Sigma Aldrich recommendations.
(§2) Cells were plated in 96-well tissue culture plates at 4,000 cells/well and incubated at 37° C./5% CO2 for 24 hr in 100 μl of media. 3-fold serial dilutions of each test compound were prepared ranging from 20 μM to 1.02 nM. Cells were then treated with test compounds at various concentrations with a final concentration of 0.5% DMSO/well, and then incubated at 37° C./5% CO2 for 24 hr. 100 μl of CellTiter-Glo® Reagent (Promega Corporation, Madison, WI) was added to each well and processed according manufacturer's protocol. Results were analyzed and IC50-values were calculated in GraphPad 7 software.

LU65A = assay: CellTiter-Glo Reagent cancer cell line proliferation assay, LU65A; settings: KRAS(G12C) heterozygous
Description: as §1, §2

NCIH727 = assay: CellTiter-Glo Reagent cancer cell line proliferation assay, NCIH727; settings: NCIH727, KRAS(G12V) heterozygous
Description: as §1, §2

Compound	IC50 (AGS; Homo sapiens, 24 h) [nM]	IC50 (LU65A; Homo sapiens, 24 h) [nM]	IC50 (NCIH727; Homo sapiens, NCI-H727, 24 h) [nM]	IC50 (AGS; 24 hr) [nM]	IC50 (LU65A; 24 hr) [nM]	IC50 (NCIH727; 24 hr) [nM]
C#Cc1c(F)ccc2cc(O)cc(-c3nc(OC)c4c(N5CC6CCC(C5)N6C(=O)CC(C)C#N)nc(OCC5(CNC6CCC(=O)NC6=O)CC5)nc4c3F)c12 (stereo not shown) [Compound 145]	< 100	< 100	< 100			
C#Cc1c(F)ccc2cc(O)cc(-c3ncc4c(N5CC6CCC(C5)N6C(=O)CC(C)C#N)nc(OCC5CCCN(CC6CCN(c7ccc8c(c7)CN(C7CCC(=O)NC7=O)C8=O)CC6)C5)nc4c3F)c12 (stereo not shown) [Compound 133]	< 100	< 100	< 100			
C#Cc1c(F)ccc2cc(O)cc(-c3ncc4c(N5CCCOC6CC65)nc(OCC5(CN6CCN(CC7CCN(c8ccc9c(c8)CN(C8CCC(=O)NC8=O)C9=O)CC7)CC6)CC5)nc4c3F)c12 (stereo not shown) [Compound 139]	> 1000	> 1000	> 1000			
C#Cc1cccc2cccc(-c3ncc4c(N5CC6CCC(C5)N6)nc(OCCN5CCN(Cc6ccc7c(c6)C(=O)N(C6CCC(=O)NC6=O)C7=O)CC5)nc4c3F)c12 (stereo not shown) [Compound 1, 5-((4-(2-((4-(3,8-diazabicyclo[3.2.1]octan-3-yl)-7-(8-ethynylnaphthalen-1-yl)-8-fluoropyrido[4,3-d]pyrimidin-2-yl)oxy)ethyl)piperazin-1-yl)methyl)-2-(2,6-dioxopiperidin-3-yl) isoindoline-1,3-dione hydrochloride]	> 1000					
C#Cc1c(F)ccc2cc(O)cc(-c3ncc4c(N5CC6CCC(C5)N6C(=O)CC(C)C#N)nc(OCC5(CN6CCN(CC7CCN(c8ccc(NC9CCC(=O)NC9=O)cc8F)CC7)CC6)CC5)nc4c3F)c12 (stereo not shown) [Compound 137]	< 100	< 100	< 100			
C#Cc1c(F)ccc2cc(O)cc(-c3ncc4c(N5CC6CCC(C5)N6C(=O)CC(C)C#N)nc(OCC5(CN6CC7CC7C6)CC5)nc4c3OCc3ccc(-c4cn([C@H](C(=O)N5C[C@H](O)C[C@H]5C(=O)N[C@@H](CO)c5ccc(-c6ccnn6CC)cc5)C(C)C)nn4)cc3)c12 (stereo partly shown) [Compound 138]				> 1000	> 1000	> 1000
C#Cc1c(F)ccc2cc(O)cc(-c3ncc4c(N5CC6CCC(C5)N6C(=O)CC(C)C#N)nc(OCC5(CN(C)Cc6ccc(C7CN(c8ccc9c(c8)CN(C8CCC(=O)NC8=O)C9=O)C7)cc6)CC5)nc4c3F)c12 (stereo not shown) [Compound 132]	< 100	< 100	< 100			
N#CCCC(=O)N1C2CCC1CN(c1nc(OCC3(CN4CCN(CC5CCN(c6ccc7c(c6)CN(C6CCC(=O)NC6=O)C7=O)CC5)CC4)CC3)nc3c(F)c(-c4cc(N)cc(Cl)c4C(F)(F)F)c(Cl)cc13)C2 (stereo not shown) [Compound 153]	< 100	< 100	< 100			
C#Cc1c(F)ccc2cc(O)cc(-c3ncc4c(N5CC6CCC(C5)N6C(=O)Cn5cc(COCCOCCOCCNc6ccc7c(c6)CN(C6CCC(=O)NC6=O)C7=O)nn5)nc(OCC56CCCN5C[C@@H](F)C6)nc4c3F)c12 (stereo partly shown) [Compound 141]	< 100	< 100	< 100			
C#Cc1c(F)ccc2cc(O)cc(-c3ncc4c(N5CC6CCC(C5)N6C(=O)CC(C)C#N)nc(OCC5(CN6CC7CC7C6)CC5)nc4c3OCc3ccc(-c4cn([C@H](C(=O)N5C[C@H](O)C[C@H]5C(=O)N[C@@H](CO)c5ccc(-c6ccnn6CC)cc5)C(C)C)nn4)cc3)c12 (stereo partly shown) [Compound 140]				< 100	< 100	< 100
C#Cc1c(F)ccc2cc(O)cc(-c3ncc4c(N5CCCOCC5)nc(OCC5(CN6CCN(CC7CCN(c8ccc9c(c8)CN(C8CCC(=O)NC8=O)C9=O)CC7)CC6)CC5)nc4c3F)c12 (stereo not shown) [Compound 134]	< 100	< 100	< 100			

The next lines start with the values.

IC50 (AGS; Homo sapiens, 24 h) [nM]	IC50 (LU65A; Homo sapiens, 24 h) [nM]	IC50 (NCIH727; Homo sapiens, NCI-H727, 24 h) [nM]	IC50 (AGS; 24 hr) [nM]	IC50 (LU65A; 24 hr) [nM]	IC50 (NCIH727; 24 hr) [nM]	Compound
< 100	< 100	< 100				C#Cc1c(F)ccc2cc(O)cc(-c3ncc4c(N5CC6CCC(C5)N6C(=O)CC(C)(C)C#N)nc(OCC5(CN6CCN(CC7CCN(c8ccc9c(c8)CN(C8CCC(=O)NC8=O)C9=O)CC7)CC6)CC5)nc4c3F)c12 (stereo not shown) [Compound 131]
< 100	< 100	< 100				C#Cc1c(F)ccc2cc(O)cc(-c3ncc4c(N5CC6CCC(C5)N6C(=O)NC5CCC5)nc(OCC5(CN6CCN(CC7CCN(c8ccc9c(c8)CN(C8CCC(=O)NC8=O)C9=O)CC7)CC6)CC5)nc4c3F)c12 (stereo not shown) [Compound 128]
< 100	< 100	< 100				C#Cc1c(F)ccc2cc(O)cc(-c3nc(OC)c4c(N5CC6CCC(C5)N6C(=O)C[C@@H](C)C#N)nc(OCC5(CN6CCN(CC7CCN(c8ccc9c(N%10CCC(=O)NC%10=O)nn(C)c9c8)CC7)CC6)CC5)nc4c3F)c12 [Compound 160]
< 100	< 100	< 100				C#Cc1c(F)ccc2cc(O)cc(-c3nc(OC)c4c(N5CC6CCC(C5)N6C(=O)CC(C)C#N)nc(OCC5(CN6CCN(CC7CCN(c8ccc9c(N%10CCC(=O)NC%10=O)nn(C)c9c8)CC7)CC6)CC5)nc4c3F)c12 (stereo not shown) [Compound 152]
< 100	< 100	< 100				C#Cc1c(F)ccc2cc(O)cc(-c3nc(OC)c4c(N5CCCOCC5)nc(OCC5(CN6CCN(CC7CCN(c8ccc9c(c8)CN(C8CCC(=O)NC8=O)C9=O)CC7)CC6)CC5)nc4c3F)c12 (stereo not shown) [Compound 127]
< 100	< 100	< 100				C#Cc1c(F)ccc2cc(O)cc(-c3nc(OC)c4c(N5CCCOC6CC65)nc(OCC5(CN6CCN(CC7CCN(c8ccc9c(c8)CN(C8CCC(=O)NC8=O)C9=O)CC7)CC6)CC5)nc4c3F)c12 (stereo not shown) [Compound 157]
< 100	< 100	< 100				C#Cc1c(F)ccc2cc(O)cc(-c3nc(OC)c4c(N5CC6CCC(C5)N6C(=O)CC(C)C#N)nc(OCC5(CN6CCC(CN7CCC(c8ccc9c(c8)CN(C8CCC(=O)NC8=O)C9=O)C(F)(F)C7)CC6)CC5)nc4c3F)c12 (stereo not shown) [Compound 161]
< 100	< 100	< 100				C#Cc1c(F)ccc2cc(O)cc(-c3nc(OC)c4c(N5CC6CCC(C5)N6C(=O)C[C@@H](C)C#N)nc(OCC5(CN6CCN(CC7CCN(c8ccc9c(c8)CN(C8CCC(=O)NC8=O)C9=O)CC7)CC6)CC5)nc4c3F)c12 (stereo partly shown) [Compound 143]
< 100	< 100	< 100				C#Cc1c(F)ccc2cc(O)cc(-c3nc(OC)c4c(N5CC6CCC(C5)N6C(=O)CCC#N)nc(OCC5(CN6CCC(CN7CCC(N8Cc9cc%10c(cc9C8)C(=O)N(C8CCC(=O)NC8=O)C%10)CC7)CC6)CC5)nc4c3F)c12 (stereo not shown) [Compound 163]
< 100	< 100	< 100				C#Cc1c(F)ccc2cc(O)cc(-c3nc(OC)c4c(N5CC6CCC(C5)N6C(=O)C(C#N)CC#N)nc(OCC5(CN6CCN(CC7CCN(c8ccc9c(c8)CN(C8CCC(=O)NC8=O)C9=O)CC7)CC6)CC5)nc4c3F)c12 (stereo not shown) [Compound 126]
< 100	< 100	< 100				C#Cc1c(F)ccc2cc(O)cc(-c3ncc4c(N5CC6CCC(C5)N6C(=O)CC(C)C#N)nc(OCC5(CN6CCN(CC7CCN(c8ccc9c(c8)n(C)c(=O)n9C8CCC(=O)NC8=O)CC7)CC6)CC5)nc4c3F)c12 (stereo not shown) [Compound 136]
< 100	< 100	< 100				C#Cc1c(F)ccc2cc(O)cc(-c3nc(OC(F)(F)F)c4c(N5CC6CCC(C5)N6C(=O)CCC#N)nc(OCC5(CN6CCN(CC7CCN(c8ccc9c(c8)CN(C8CCC(=O)NC8=O)C9=O)CC7)CC6)CC5)nc4c3F)c12 (stereo not shown) [Compound 151]
< 100	< 100	< 100				C#Cc1c(F)ccc2cc(O)cc(-c3nc(OC)c4c(N5CC6CCC(C5)N6C(=O)CC(C)C#N)nc(OCC5(CN6CCN(CC7CCN(c8ccc9c(c8)CN(C8CCC(=O)NC8=O)C9=O)CC7)CC6)CC5)nc4c3F)c12 (stereo not shown) [Compound 135]
< 100	< 100	< 100				C#Cc1c(F)ccc2cc(O)cc(-c3nc(OC)c4c(N5CC6CCC(C5)N6C(=O)CC(C)C#N)nc(OCC5(CN6CCN(C[C@H]7CCN(c8ccc9c(c8)CN(C8CCC(=O)NC8=O)C9=O)C[C@@H]7F)CC6)CC5)nc4c3F)c12 (stereo partly shown) [Compound 154]
< 100	< 100	< 100				C#Cc1c(F)ccc2cc(O)cc(-c3nc(OC)c4c(N5CC6CCC(C5)N6C(=O)CCC#N)nc(OCC5(CN6CCN(CC7CCN(c8ccc9c(N%10CCC(=O)NC%10=O)nn(C)c9c8)CC7)CC6)CC5)nc4c3F)c12 [Compound 159]
< 100	< 100	< 100				C#Cc1c(F)ccc2cc(O)cc(-c3nc(OC)c4c(N5CCCO[C@H]6C[C@H]65)nc(OCC5(CN6CCN(CC7CCN(c8ccc9c(c8)CN(C8CCC(=O)NC8=O)C9=O)CC7)CC6)CC5)nc4c3F)c12 (stereo partly shown) [Compound 164]
< 100	< 100	< 100				C#Cc1c(F)ccc2cc(O)cc(-c3nc(OC)c4c(N5CC6CCC(C5)N6C(=O)C[C@@H](C)C#N)nc(OCC5(CN6CCN(CN7CCC(N8Cc9cc%10c(cc9C8)C(=O)N(C8CCC(=O)NC8=O)C%10)CC7)CC6)CC5)nc4c3F)c12 (stereo partly shown) [Compound 162]

From patent US20260325654A1, “METHODS AND COMPOSITIONS FOR TARGETED PROTEIN DEGRADATION” (Ranok Therapeutics (Hangzhou) Co. Ltd., priority 2023, published 2026)
